Reference: patent US11628164B2, “Composition containing salsolinol for treating liver cancer” (SUNGSHIN WOMEN'S UNIVERSITY R&DB FOUNDATION, priority 2020, dated 2023)

Legend:
[1] = system: Ki-67, 8-OHdG in liver tissue; assay: Immunofluorescence staining of liver tissue (Ki-67, 8-OHdG); format: in vivo, C57BL/6 mouse
Protocol: The salsolinol (200 mg/kg) is administered for 6 months through intraperitoneal injection three times per week from the time when the DEN-induced liver cancer mouse model (male) became 7 weeks of age. After the mouse is sacrificed, the experiment is performed.
In the paraffin section slide requested to be manufactured by NORTHUS Co., Ltd., paraffin is removed by using xylene (Duksan, Gyeonggi, Korea). And, after a hydration process with low concentration ethanol (100, 90, 80, and 70% ethanol) at a high concentration, the slide is rinsed twice with running water. Since formaldehyde forms a cross-link between proteins to prevent a primary antibody from binding to the epitope of the antigen, the cross-link is removed by using an antigen retrieval reagent (sigma). After washing the slide thoroughly with running water, and dropping 2% triton for nuclear staining, the slide is left for 45 minutes. After washing the slide thoroughly with running water, blocking proceeds for 1 hour with a PBS solution containing 3% BSA to prevent non-specific binding. Then, after dropping a diluted PBS solution containing 3% BSA diluted with a primary antibody (8-OHdG, Ki-67) (1:500) on the slide, the slide is left at 4° C. for one day. After washing the slide with PBS and dropping a diluted secondary antibody (1:2000) on the slide, the slide is left at 4° C. for 1 hour. After washing the slide with PBS, staining with DAPI (1:200), and dropping 2-3 drops of mounting solution (sigma), the slide is covered with a slide cover. After about a day, the degree of fluorescence staining is checked by using a confocal microscope.
Tumor-related genes Ki-67 and 8-OHdG expressed in the liver tissue of the DEN-induced liver cancer mouse model (male, DEN), the DEN-induced liver cancer mouse model (male, DEN+SAL) administered with the salsolinol, and the normal mouse (male, SAL) administered with the salsolinol are analyzed by using an immunofluorescence measurement method (refer to FIGS. 10 and 11).

SK-Hep1 [2] = assay: Colony formation experiment; format: cell-based, human
Protocol: Among the human-derived liver cancer cell lines, the SK-Hep1, which is a liver cancer cell lines, is dispensed into 96-wells so as to have a concentration of 1×10^4 cells, and then, the SK-Hep1 is treated once every two or three days so that the salsolinol has a concentration of 25 μM or 50 μM. The salsolinol-treated the SK-Hep1 is further cultured for 3 days under the above-mentioned conditions. After that, the SK-Hep1 is fixed with 4% formaldehyde, stained with crystal violet for 2 hours, and after extraction with an acetic acid, the absorbance (570 nm) is measured. After culturing the SK-Hep1 cells at 1×10^4 cells/well for 24 hours, the SK-Hep1 is treated three times at 48 hour intervals with the salsolinol so as to have a concentration of 25 μM or 50 μM, and then the degree of colony formation is checked (refer to FIG. 2). The colony formation experiment for the SK-Hep11 is repeated a total of 4 times, the statistic process is performed, and comparison and analysis are performed. As a result of the experiment, in the case of being treated with the salsolinol having a concentration of 25 μM, it is confirmed that the colony formation ability of the SK-Hep1 is decreased to a level of 50% compared with the SK-Hep1 not treated with the salsolinol. […]

[3] = system: normal hepatocytes (NCTC1469); details: NCTC1469, from KR10-2019-0129765; cited from earlier work
SK-Hep1 [4] = assay: MTT cell viability, male-derived liver cancer cell line; format: cell-based, human; details: SK-Hep1, 5-100 μM salsolinol
Protocol: SK-Hep1 and SNU387, which are human-derived hepatoma cell lines, are distributed from Korea Cell Line Bank. […] The SK-Hep1 and the SNU387 are cultured in a medium including a minimum essential medium (Dulbecco Modified Eagle Medium, DMEM) (Gibco BRL grand Island, N.Y., USA) and in a medium containing 10% FBS (HyClone Lab, Inc, Logan, Utah, USA), 100 U/ml penicillin. (penicillin) and 100 μg/ml streptomycin (Gibco, Grand Island, N.Y., USA) at 37° C. in an atmosphere of 5% CO2. The cultured liver cancer cell lines (SK-HEP1 and SNU387) are dispensed into each well of a 48-well plate so as to have a concentration of 5×10^4 cells. After culturing for 24 hours, the sample is treated with the salsolinol for 24 hours, 48 hours, and 72 hours so as to have a concentration of 5 μM, 15 μM, 25 μM, 50 μM, or 100 μM. After that, 250 μl of 0.5 mg/ml MTT solution (Sigma, St Louis, Mo., US) is added to each well and reacted at 37° C. for 1 hour. After removing the solution, MTT-formazione is lysed and washed with 250 μl of DMSO (Dimethylsulfoxide, Duksan, Gyeonggi, Korea), and then, the absorbance at 540 nm is measured by using a SpectraMax 190 microplate plate reader (Molecular Devices, LCC. San Jose, Calif.). […]

[5] = normal mouse administered with salsolinol (SAL)

CC1NCCc2cc(O)c(O)cc21 (stereo not shown) [salsolinol, 6,7-dihydroxy-1-methyl-1,2,3,4-tetrahydroisoquinoline]
Ki-67 expression ([1]; DEN+SAL liver): not confirmed
8-OHdG expression ([1]; DEN+SAL liver tissue): at a low level
8-OHdG expression [1, 5]: at a low level
Ki-67 expression [1, 5]: not confirmed
colony formation ability compared with untreated SK-Hep1 (SK-Hep1 [2]; 25 μM salsolinol): 50%
colony formation ability compared with untreated SK-Hep1 (SK-Hep1 [2]; 50 μM salsolinol): 20%
PARP-cleavage / apoptosis [3]: PARP-cleavage is induced to induce apoptosis
fibrosis-related genes and active oxygen species [3]: increases fibrosis-related genes and active oxygen species
cell viability (MTT) (SK-Hep1 [4]; 48 and 72 hours): degree of decrease in cell viability according to the treatment concentration of salsolinol increases
cell viability (MTT) (SK-Hep1 [4]; 24 hours): cell viability decreases as the concentration of salsolinol increases
